# Results as given in patent publication US11389415B2, “Methods of regulating cannabinoid receptor activity-related disorders and diseases” (The United States of America as represented by the …, priority 2012, dated 2022).
# Tests used:
# rat C6 glioma cells = assay: 3H-Thymidine incorporation in rat C6 glioma cells; format: cell-based; conditions: for effect of preincubation on antiproliferative effect of MNF: C6 cells, ICI-118,551 3 nM, AM251 0.5 and 1 μM, AM630 0.5 μM, 30 minutes, then 20 nM MNF
# Protocol: Cell culture. The rat-derived C6 glioma cell line was obtained from the American Type Culture Collection (Manassas, Va.). The cells were routinely maintained in DMEM supplemented with L-glutamine, 1% penicillin/streptomycin solution, and 10% FBS in a humidified CO2 incubator at 37° C.
# 3H-Thymidine incorporation. C6 glioma cells were seeded in 12-well plates at ˜5×10^4 cells/well and incubated for 24 hours followed by a second 24-hour incubation with various concentrations of MNF. Radiolabeled thymidine (10 Ci/mmol; PerkinElmer Life and Analytical Sciences, Waltham, Mass.) was added at 1 μCi per well for 16 hours and its incorporation into DNA was then measured. Each treatment group was performed in triplicate and three independent studies were carried out.
# HepG2 cells [1] = assay: [3H]-Thymidine incorporation assay in HepG2 cells; format: cell-based, human; conditions: for % Change in HepG2 cells ([3H]-thymidine incorporation): 1 μM; for effect of pretreatment on (R,R′)-Fen-stimulated mitogenesis: 1 h pretreatment then (R,R′)-Fen 24 h; for effect of pretreatment on anti-proliferative effect of (R,R′)-MNF: 1 h pretreatment then (R,R′)-MNF 24 h; for effect on cell proliferation: compound alone
# Protocol: (§1) Maintenance and Treatment of Cell Lines. Human HepG2 hepatocarcinoma cells and human U87MG glioma cells (ATCC, Manassas, Va.) were maintained in EMEM medium supplemented with 1% L-glutamine, 1% sodium pyruvate, 1% penicillin/streptomycin, and 10% FBS (Hyclone, Logan, Utah). The human 1321N1 astrocytoma cells (European Collection of Cell Cultures, Sigma-Aldrich) were cultured in Dulbecco's modified Eagle's medium supplemented with 10% FBS and penicillin/streptomycin. All cell lines were cultured at 37° C. in 5% CO2, and the medium was replaced every 2-3 days.
# (§2) Cells were seeded in 12-well plates at approximately 50,000 cells/well and incubated at 37° C. After 24 hours, the wells were rinsed with PBS and replaced with serum-free medium containing the appropriate concentration of the test compounds. After another 24-hour incubation at 37° C., 1 μCi of [^3H]-thymidine was added to each well and incubated at 37° C. for 16 hours. [^3H]-Thymidine incorporation into DNA was monitored after the cells were washed twice with PBS and then lysed in 600 μL of 0.1N NaOH for 30 minutes with shaking. The lysate was then mixed with 3 mL of liquid scintillation cocktail (Beckman Coulter, Inc., Brea, Calif.), and radioactivity was measured by liquid scintillation counting using Beckman Coulter LS6000IC Scintillation Counter. Data are shown as CPM incorporated compared to the control cells.
# Akt and ERK1/2 = assay: phosphorylation of Akt and ERK1/2 in HepG2 cells (Western blot); format: cell-based, human; conditions: 1 μM, 5, 10 and 30 minutes
# Protocol: Western Blotting. Cells were lysed with RIPA buffer containing EGTA and EDTA (Boston BioProducts, Ashland, Mass.). The lysis buffer was mixed with a protease inhibitor cocktail (Sigma-Aldrich). Protein concentrations were measured using the bicinchoninic acid reagent (Thermo-Pierce Biotechnology, Inc., Rockford, Ill.). […] Western blots were performed according to standard methods. The visualization of immunoreactive bands was performed using the ECL Plus Western Blotting Detection System (GE Healthcare, NJ) and their quantification was done by volume densitometry using Image J software and normalization to β-actin. […] The antibodies were used at a dilution recommended by the manufacturer.
# 1321N1 cells = assay: Mitogenesis / [3H]-thymidine incorporation in 1321N1 cells; format: cell-based, human; conditions: for effect on proliferation / [3H]-thymidine incorporation: compound alone
# Protocol: as §1
# as §2, with “[^3H]-Thymidine Incorporation Assay. Cells” for “Cells”
# U87MG cells = assay: [3H]-Thymidine incorporation in U87MG cells; format: cell-based, human
# Protocol: as §1, §2
# HepG2 cells [2] = assay: cAMP accumulation in HepG2 cells; format: cell-based, human; conditions: β-agonists at 10 μM
# Protocol: cAMP Accumulation. HepG2 cells were seeded in 96-well plates and grown to confluency. […] The levels of cAMP accumulated in cells were determined and normalized to the amount of protein per well.
# GPR55 = GPR55 (Homo sapiens, UniProt Q9Y2T6); assay: Cellular uptake of TocriFluor T1117 in HepG2 cells; format: cell-based; parameters: host or cells: HepG2 hepatocarcinoma cells; conditions: for effect of pretreatment on T1117 incorporation: HepG2, AM630 1 μM, WIN 55,212-2 1 μM (1 hour), AM251 1 μM (30 minutes)
# GPR55, sequence (Q9Y2T6 whole entry): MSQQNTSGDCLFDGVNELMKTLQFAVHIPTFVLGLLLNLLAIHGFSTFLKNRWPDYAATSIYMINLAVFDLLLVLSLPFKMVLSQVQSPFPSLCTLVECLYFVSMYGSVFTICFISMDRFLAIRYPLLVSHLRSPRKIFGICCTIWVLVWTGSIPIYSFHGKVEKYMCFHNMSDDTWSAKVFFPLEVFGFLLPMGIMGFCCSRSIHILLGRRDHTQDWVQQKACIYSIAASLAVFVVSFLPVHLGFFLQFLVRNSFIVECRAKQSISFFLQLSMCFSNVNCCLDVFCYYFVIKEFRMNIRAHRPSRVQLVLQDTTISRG
structure (smiles),measurement,setting,value
"CC(C)NC[C@H](O)c1ccc(O)c(O)c1 [(R)-isoproterenol, reference compound]",inhibition at 0.02 µM,"rat C6 glioma cells; Rattus norvegicus, 20 nM, 24 hours, read-out: inhibition of C6 cell growth / reduction in mitogenesis",10 to 15%
same,EC50,"HepG2 cells [1]; Homo sapiens, HepG2 cells, serum-free medium, 24 h, read-out: IC50/EC50 (μM): EC50 (ED50) for increase in [3H]-thymidine incorporation",0.4 ± 0.08 µM
same,Akt and ERK activation,Akt and ERK1/2,induced a time-dependent increase in Akt and ERK activation
same,effect on proliferation / [3H]-thymidine incorporation,1321N1 cells,reduced proliferation in 1321N1 cells
same,effect on cellular proliferation,U87MG cells; compound alone,had no effect on U87MG cells
same,cAMP production,HepG2 cells [2],"Neither (R)-isoproterenol nor (R,R′)-Fen, at 10 μM, elicited an increase in cAMP production"
"C[C@H](Cc1cccc2ccccc12)NC[C@H](O)c1cc(O)cc(O)c1 [(R,R′)-1-naphthylFen, (R,R′)-1-naphthylfenoterol]",% Change in HepG2 cells ([3H]-thymidine incorporation),HepG2 cells [1]; 24 h,"(R,R): −67.52%"
same,IC50,"HepG2 cells [1]; Homo sapiens, HepG2, read-out: IC50/EC50 (μM): IC50 for inhibition of [3H]-thymidine incorporation",0.21 ± 0.07 µM
"C[C@H](Cc1ccc(N)cc1)NC[C@H](O)c1cc(O)cc(O)c1 [(R,R′)-aminoFen, (R,R′)-4′-aminofenoterol]",% Change in HepG2 cells ([3H]-thymidine incorporation),HepG2 cells [1]; 24 h,"(R,R′): 54.37%"
same,"fold more active than (R,R′)-Fen","HepG2 cells [1]; [3H]-thymidine incorporation, HepG2",3 fold
same,effect on proliferation / [3H]-thymidine incorporation,1321N1 cells,markedly lower
"C[C@@H](Cc1ccc(O)cc1)NC[C@H](O)c1cc(O)cc(O)c1 [(R,S′)-Fen, fenoterol]",% Change in HepG2 cells ([3H]-thymidine incorporation),HepG2 cells [1]; 24 h,19.1%
"COc1ccc(C[C@H](C)NC[C@H](O)c2cc(O)cc(O)c2)c2ccccc12 [(R,S′)-MNF, 4-methoxy-1-naphthylfenoterol]",% Change in HepG2 cells ([3H]-thymidine incorporation),HepG2 cells [1]; 24 h,−68.1%
"C[C@H](Cc1ccc(O)cc1)NC[C@@H](O)c1cc(O)cc(O)c1 [(S,R′)-Fen, fenoterol]",% Change in HepG2 cells ([3H]-thymidine incorporation),HepG2 cells [1]; 24 h,28.7%
"Cc1c(C(=O)NN2CCCCC2)nn(-c2ccc(Cl)cc2Cl)c1-c1ccc(I)cc1 [AM251, 1-(2,4-dichlorophenyl)-5-(4-iodophenyl)-4-methyl-N-(1-piperidyl)pyrazole-3-carboxamide, reference compound]",effect of preincubation on antiproliferative effect of MNF,rat C6 glioma cells,rendered C6 cells refractory to the growth-inhibitory effect of MNF
same,"effect of pretreatment on (R,R′)-Fen-stimulated mitogenesis",HepG2 cells [1]; HepG2 cells,"had no impact on the mitogenic responses of (R,R′)-Fen"
same,"effect of pretreatment on anti-proliferative effect of (R,R′)-MNF",HepG2 cells [1]; HepG2 cells,"completely inhibited the anti-proliferative effects of (R,R′)-MNF"
same,"effect of pretreatment on anti-proliferative action of (R,R′)-MNF",U87MG cells,partially blocked
"COc1ccc(C(=O)c2c(C)n(CCN3CCOCC3)c3cc(I)ccc23)cc1 [AM630, 1-[2-(morpholin-4-yl)ethyl]-2-methyl-3-(4-methoxybenzoyl)-6-iodoindole]",effect of pretreatment on T1117 incorporation,GPR55,largely inactive
same,effect of preincubation on antiproliferative effect of MNF,rat C6 glioma cells,had minimal effect against MNF signaling
same,"effect of pretreatment on (R,R′)-Fen-stimulated mitogenesis",HepG2 cells [1]; HepG2 cells,"had no impact on the mitogenic responses of (R,R′)-Fen"
same,"effect of pretreatment on anti-proliferative effect of (R,R′)-MNF",HepG2 cells [1]; HepG2 cells,"completely inhibited the anti-proliferative effects of (R,R′)-MNF"
same,"effect of pretreatment on anti-proliferative action of (R,R′)-MNF",U87MG cells,partially blocked
"CCCCCCC(C)(C)c1ccc([C@@H]2C[C@H](O)CC[C@H]2CCCO)c(O)c1 [CP 55,940]",reduction of T1117 uptake,"GPR55; HepG2, 0.25 μM, 30-minutes pretreatment",2.5 fold
"Cc1ccc(OCC(O)C(C)NC(C)C)c2c1CCC2 (stereo not drawn) [ICI 118,551, 3-(isopropylamino)-1-[(7-methyl-4-indanyl)oxy]butan-2-ol, reference compound]",effect of preincubation on antiproliferative effect of MNF,rat C6 glioma cells,did not block the antiproliferative effect of MNF
same,"effect of pretreatment on (R,R′)-Fen-stimulated mitogenesis",HepG2 cells [1]; HepG2 cells,"significantly blocked (R,R′)-Fen-stimulated mitogenesis"
same,"effect of pretreatment on anti-proliferative effect of (R,R′)-MNF",HepG2 cells [1]; HepG2 cells,"refractory to ICI 118,551 pretreatment"
same,effect on cell proliferation,HepG2 cells [1]; HepG2 cells,showed no effect on cell proliferation
same,"effect of pretreatment on (R,R′)-Fen signaling",1321N1 cells,"blocked (R,R′)-Fen signaling in 1321N1 cells"
same,"effect of pretreatment on anti-proliferative action of (R,R′)-MNF",U87MG cells,"inactive against the anti-proliferative action of (R,R′)-MNF in U87MG cells"
Cc1c(C(=O)NN2CCCCC2)nn(-c2ccc(Cl)cc2Cl)c1-c1ccc(-c2ccc(CCCNC(=O)c3ccc4c(c3)C(=O)OC43c4ccc(N(C)C)cc4Oc4cc(N(C)C)ccc43)cc2)cc1 [T1117],time of half-maximum incorporation of T1117,GPR55; HepG2 cells transfected with control siRNA,~15 min
same,EC50,"GPR55; serum-depleted cells, 37° C., 2.5-100 nM, read-out: T1117 concentration of half-maximal cellular incorporation",~8 nM
"CN(C)c1ccc2c(-c3ccc(C(=O)NCCCc4ccccc4)cc3C(=O)[O-])c3ccc(N(C)C)cc3[o+]c2c1 [TAMRA-PPA, 5′-TAMRA-3-phenylpropan-1-amine]",cellular incorporation of fluorescence,"GPR55; HepG2 cells, up to 1 hour",no significant incorporation of fluorescence
"Cc1c(C(=O)c2cccc3ccccc23)c2cccc3c2n1[C@H](CN1CCOCC1)CO3 [WIN 55,212-2, reference compound]",effect of pretreatment on T1117 incorporation,GPR55,markedly increased the rate of T1117 accumulation
same,"effect of pretreatment on (R,R′)-Fen-stimulated mitogenesis",HepG2 cells [1]; HepG2 cells,canceled out the growth-promoting action of fenoterol
same,effect on cell proliferation,HepG2 cells [1]; HepG2 cells,reduced cell proliferation
